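The compound was tested at five concentrations on cells cultured in 96-well plates, with a 48-hour exposure period. Abbreviation: GI50, concentration required for 50% inhibition of growth.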 Activity calls are given as the source filed them. Rule as the data show it: active = GI50 up to about 1.1 µM and inactive = higher.
Tests used:
Experiment in all cases: DTP human tumour cell line panel, 48 h
SF-295 = system: SF-295
HCT-116 = system: HCT-116
OVCAR-8 = system: OVCAR-8
MOLT-4 = system: MOLT-4
SW-620 = system: SW-620
CCRF-CEM = system: CCRF-CEM
A549 = system: A549
MDA-MB-231 = system: MDA-MB-231
IGROV-1 = system: IGROV-1
NCI/ADR-RES = system: NCI/ADR-RES
UO-31 = system: UO-31
MDA-MB-435 = system: MDA-MB-435
HOP-62 = system: HOP-62
ACHN = system: ACHN
T47D = system: T47D
786-0 = system: 786-0
MCF7 = system: MCF7
PC-3 = system: PC-3
SK-MEL-2 = system: SK-MEL-2
SF-539 = system: SF-539

Measured: GI50

NC(=S)Nc1ccc(S(=O)(=O)Nc2ccc(S(N)(=O)=O)cc2)cc1
inactive: SF-295 > 100 µM | HCT-116 > 100 µM | OVCAR-8 > 100 µM | MOLT-4 > 100 µM | SW-620 > 100 µM | CCRF-CEM > 100 µM | A549 > 100 µM | MDA-MB-231 > 100 µM | IGROV-1 > 100 µM | NCI/ADR-RES > 100 µM | UO-31 > 100 µM | MDA-MB-435 > 100 µM | HOP-62 > 100 µM | ACHN > 100 µM | T47D > 100 µM | 786-0 > 100 µM | MCF7 > 100 µM | PC-3 > 100 µM | SK-MEL-2 > 100 µM

S=C1Nc2cnc3ccccc3c2SC1c1ccccc1 (stereo not drawn)
inactive: SF-295 61.7 µM | HCT-116 > 100 µM | OVCAR-8 > 100 µM | MOLT-4 > 100 µM | A549 > 100 µM | MDA-MB-231 > 100 µM | IGROV-1 > 100 µM | NCI/ADR-RES > 100 µM | UO-31 > 100 µM | MDA-MB-435 83.4 µM | HOP-62 42.9 µM | ACHN > 100 µM | T47D > 100 µM | 786-0 > 100 µM | MCF7 > 100 µM | PC-3 > 100 µM

Cc1ccccc1OC(C)C(=O)NN1C(=O)CC(=O)N(c2ccccc2)C1=S (stereo not drawn)
inactive: SF-295 46.3 µM | HCT-116 33.4 µM | OVCAR-8 56.6 µM | MOLT-4 34 µM | SW-620 78.3 µM | A549 29.1 µM | MDA-MB-231 > 100 µM | IGROV-1 80.4 µM | NCI/ADR-RES 61 µM | UO-31 35.8 µM | MDA-MB-435 73.1 µM | HOP-62 69.2 µM | SF-539 > 100 µM | ACHN 53.8 µM | T47D 35.3 µM | 786-0 82.4 µM | MCF7 42.3 µM | PC-3 72.1 µM | SK-MEL-2 72.9 µM

O=C(O)c1cc(O)nc(S)n1
inactive: SF-295 > 100 µM | HCT-116 > 100 µM | OVCAR-8 > 100 µM | MOLT-4 > 100 µM | SW-620 > 100 µM | CCRF-CEM > 100 µM | A549 > 100 µM | MDA-MB-231 > 100 µM | IGROV-1 > 100 µM | NCI/ADR-RES > 100 µM | UO-31 > 100 µM | MDA-MB-435 > 100 µM | HOP-62 > 100 µM | ACHN > 100 µM | T47D > 100 µM | 786-0 > 100 µM | MCF7 > 100 µM | PC-3 > 100 µM | SK-MEL-2 > 100 µM

O=S(=O)(c1ccccc1)N1CCN(S(=O)(=O)c2ccccc2)c2ccccc21
inactive: SF-295 81.8 µM | HCT-116 45.2 µM | OVCAR-8 > 100 µM | SW-620 > 100 µM | A549 > 100 µM | MDA-MB-231 > 100 µM | IGROV-1 > 100 µM | NCI/ADR-RES 95.7 µM | UO-31 > 100 µM | MDA-MB-435 > 100 µM | HOP-62 > 100 µM | SF-539 > 100 µM | ACHN > 100 µM | T47D > 100 µM | 786-0 > 100 µM | MCF7 91.8 µM | PC-3 > 100 µM | SK-MEL-2 > 100 µM

CCc1cccc(CC)c1NC(=O)C(C#N)C1=C(Cl)C(=O)c2ccccc2C1=O (stereo not drawn)
inactive: SF-295 15.7 µM | HCT-116 15.9 µM | OVCAR-8 19.8 µM | MOLT-4 1.53 µM | SW-620 9.33 µM | CCRF-CEM 1.33 µM | A549 18.5 µM | MDA-MB-231 5.55 µM | IGROV-1 17.8 µM | UO-31 11.8 µM | MDA-MB-435 14.5 µM | HOP-62 14.5 µM | SF-539 11.3 µM | ACHN 16.4 µM | T47D 3.79 µM | 786-0 16.4 µM | MCF7 14.6 µM | PC-3 13 µM | SK-MEL-2 18.8 µM

N#Cc1c(Nc2nc3ccccc3s2)c2ccccc2n2c1nc1ccccc12
inactive: SF-295 82 µM | HCT-116 > 100 µM | OVCAR-8 > 100 µM | MOLT-4 > 100 µM | SW-620 > 100 µM | A549 > 100 µM | MDA-MB-231 48.4 µM | IGROV-1 > 100 µM | NCI/ADR-RES 72.4 µM | UO-31 > 100 µM | MDA-MB-435 > 100 µM | HOP-62 27.1 µM | SF-539 > 100 µM | ACHN 79.8 µM | T47D > 100 µM | 786-0 29 µM | MCF7 > 100 µM | PC-3 > 100 µM | SK-MEL-2 > 100 µM

CSC(Cc1ccc2c(c1)Sc1ccccc1O2)=[N+]1CCOCC1
inactive: SF-295 44.5 µM | HCT-116 41.4 µM | OVCAR-8 52.6 µM | MOLT-4 35.7 µM | SW-620 > 100 µM | A549 63.8 µM | MDA-MB-231 > 100 µM | IGROV-1 48.6 µM | NCI/ADR-RES 56.8 µM | UO-31 36.8 µM | MDA-MB-435 33 µM | HOP-62 > 100 µM | SF-539 74.6 µM | ACHN 58.3 µM | T47D 65.5 µM | 786-0 88.9 µM | MCF7 40.2 µM | PC-3 44.7 µM | SK-MEL-2 > 100 µM
